For 3 compounds, IC50 results are on record in publication PMC9596378, “Discovery and molecular basis of subtype-selective cyclophilin inhibitors” (Nature Chemical Biology, 2022).

As usually defined, the IC50 is the concentration that inhibits the measured activity by half.

SMILES strings stand for the structures. “And” between values parts separate entries of the source, which are not always exact repeats. Equal entries are not always repeated. Where two headings read alike, the source gives them in different places. Bounds are passed on as bounds.

Experiment in all cases: Chymotrypsin coupled prolyl-isomerase assay
The target in one experiment is Cyp40 (Homo sapiens, UniProt Q08752). The following applies: read-out: Wild-Type Cyclophilin Prolyl Isomerase Inhibition IC50 Values, Cyp40; wild-type Cyp40. How it is done: (§1) Adapting a previously described protocol, with an Agilent Bravo Velocity 11 with a 384ST head, 90 µL assay buffer (25 mM HEPES pH 7.3, 100 mM NaCl, 0.01% Triton X-100) containing 5.28 nM cyclophilin was added into a flat, clear-bottom, black 384-well plate pre-chilled in a Corning CoolBox at 2–3 °C. Five microliters of compound pre-dissolved in 5% DMSO/assay buffer was then added to appropriate wells and incubated at 2–3 °C for 5 min. Five microliters of 0.5 mM α-chymotrypsin from bovine pancreas (Type II, lyophilized powder, Millipore-Sigma) in 20% 1 mM HCl/Assay Buffer was then added to each well and incubated at 2–3 °C for 5 min. The plate was then quickly transferred to a FLIPR Tetra High-Throughput Cellular Screening System (Molecular Devices). Using the internal liquid handling system of the FLIPR, 1 µL 0.5 mM Suc-AAPF-AMC (Chymotrypsin Substrate II, Millipore-Sigma) dissolved in 0.55 M LiCl/2,2,2-trifluoroethanol was added to each well, which was then mixed for 5 s, followed by immediate fluorescence measurements every 1 s for 330 s using a 360–380 nm excitation LED module and a 400–460 nm emission filter. Final concentrations of the plate include 5 nM cyclophilin, 0.25% DMSO, 25 µM α-chymotrypsin, 5 µM Suc-AAPF-AMC. Raw fluorescence data was analyzed by non-linear regression analysis with Prism v.9 by fitting one-phase association curves to each well. […] Rate constants calculated for each well (s^−1) were then normalized to substrate only (no prolyl-isomerase) and enzyme + substrate only controls. IC50 values were calculated as the value at which 50% inhibition was achieved on the non-linear regression fitted curve of each compound.
Chain of Cyp40 (Q08752 1-183): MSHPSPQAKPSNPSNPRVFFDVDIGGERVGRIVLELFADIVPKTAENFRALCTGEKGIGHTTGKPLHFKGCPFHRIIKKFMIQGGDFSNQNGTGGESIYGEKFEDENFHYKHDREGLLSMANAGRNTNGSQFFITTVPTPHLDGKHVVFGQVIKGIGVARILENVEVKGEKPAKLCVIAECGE

For the next experiment, the target named is T1, NKTR (Homo sapiens, UniProt P30414).
T1 construct: NKTR (UniProtKB Entry P30414: residues 7–179); host or cells: E. coli BL21(DE3)
T1 sequence (P30414 7-179): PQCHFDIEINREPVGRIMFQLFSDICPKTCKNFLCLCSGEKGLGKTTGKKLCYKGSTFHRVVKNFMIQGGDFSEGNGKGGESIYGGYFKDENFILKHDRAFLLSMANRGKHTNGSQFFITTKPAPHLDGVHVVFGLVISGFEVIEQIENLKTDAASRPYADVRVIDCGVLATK
The format is biochemical.

A further experiment concerns the target T2, CypG (Homo sapiens, UniProt Q13427).
T2 construct: PPIG (UniProtKB Entry Q13427: residues 1–179); His6 with thrombin site (pET28a LIC leader) (N); host or cells: E. coli BL21(DE3)
T2 sequence (Q13427 1-179): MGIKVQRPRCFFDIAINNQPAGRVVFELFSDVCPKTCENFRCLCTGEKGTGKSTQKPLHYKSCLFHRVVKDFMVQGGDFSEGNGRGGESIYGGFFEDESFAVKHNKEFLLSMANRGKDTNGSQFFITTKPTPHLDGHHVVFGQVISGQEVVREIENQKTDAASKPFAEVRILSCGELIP
The format is biochemical. The following applies: wild-type CypG; read-out: Wild-Type Cyclophilin Prolyl Isomerase Inhibition IC50 Values, CypG. On the procedure: as §1

In another experiment the target is T3, CypH (Homo sapiens, UniProt O43447).
T3 construct: PPIH (UniProtKB Entry O43447: residues 1–177); His6 with TEV site (2BT vector leader) (N); made in house; host or cells: E. coli BL21(DE3)
T3 sequence (O43447 whole entry, the tested form may be a part): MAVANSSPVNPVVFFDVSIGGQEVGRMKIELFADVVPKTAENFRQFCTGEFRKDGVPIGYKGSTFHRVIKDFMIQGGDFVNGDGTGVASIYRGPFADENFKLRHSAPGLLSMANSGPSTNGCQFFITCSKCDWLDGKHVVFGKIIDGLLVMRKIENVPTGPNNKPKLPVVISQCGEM
The format is biochemical. On the procedure:
as §1

Another experiment has as its target T4, CypC (Homo sapiens, UniProt P45877).
T4 construct: PPIC (UniProtKB Entry P45877: residues 24–212); host or cells: E. coli BL21(DE3)
The format is biochemical. How it is done: as §1

For a further experiment, the target named is T5, CypE (Homo sapiens, UniProt Q9UNP9).
T5 construct: PPIE (UniProtKB Entry Q9UNP9: residues 131–301); host or cells: E. coli BL21(DE3)
T5 sequence (Q9UNP9 131-301): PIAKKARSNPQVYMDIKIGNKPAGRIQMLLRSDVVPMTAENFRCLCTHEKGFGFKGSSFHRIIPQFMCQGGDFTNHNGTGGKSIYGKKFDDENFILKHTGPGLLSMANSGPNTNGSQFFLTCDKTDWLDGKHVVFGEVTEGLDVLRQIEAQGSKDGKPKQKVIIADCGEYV
The format is biochemical. On the procedure: as §1

The target of a further experiment is T6, CypA (Homo sapiens, UniProt P62937).
T6 construct: PPIA (UniProtKB Entry P62937: residues 1–165); made in house; host or cells: E. coli BL21(DE3)
T6 sequence (P62937 whole entry, the tested form may be a part): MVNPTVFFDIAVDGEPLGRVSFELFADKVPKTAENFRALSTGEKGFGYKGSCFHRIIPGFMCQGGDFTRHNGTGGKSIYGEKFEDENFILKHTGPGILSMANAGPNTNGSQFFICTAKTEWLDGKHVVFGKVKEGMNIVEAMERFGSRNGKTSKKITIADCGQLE
The format is biochemical. How it is done: as §1

A further experiment has as its target T7, PPIL1 (Homo sapiens, UniProt Q9Y3C6).
T7 construct: PPIL1 (UniProtKB Entry Q9Y3C6: residues 1–166); made in house; host or cells: E. coli BL21(DE3)
T7 sequence (Q9Y3C6 1-166): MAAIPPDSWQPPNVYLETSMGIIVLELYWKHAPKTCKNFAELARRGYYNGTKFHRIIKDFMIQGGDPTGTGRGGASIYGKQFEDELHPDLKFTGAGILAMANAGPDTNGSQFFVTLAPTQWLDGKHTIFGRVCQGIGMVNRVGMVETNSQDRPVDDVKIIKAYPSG
The format is biochemical.

[1] abbreviates: wild-type NKTR, read-out: Wild-Type Cyclophilin Prolyl Isomerase Inhibition IC50 Values, NKTR.
Where [2] appears, read: wild-type CypH, read-out: Wild-Type Cyclophilin Prolyl Isomerase Inhibition IC50 Values, CypH.
Setting [3] is: wild-type CypC, read-out: Wild-Type Cyclophilin Prolyl Isomerase Inhibition IC50 Values, CypC.
Where [4] appears, read: wild-type CypE, read-out: Wild-Type Cyclophilin Prolyl Isomerase Inhibition IC50 Values, CypE.
The mark [5] stands for this setting: wild-type CypA, read-out: Wild-Type Cyclophilin Prolyl Isomerase Inhibition IC50 Values, CypA.
[6] abbreviates: wild-type PPIL1, read-out: Wild-Type Cyclophilin Prolyl Isomerase Inhibition IC50 Values, PPIL1.

T4 sequence (P45877 24-212): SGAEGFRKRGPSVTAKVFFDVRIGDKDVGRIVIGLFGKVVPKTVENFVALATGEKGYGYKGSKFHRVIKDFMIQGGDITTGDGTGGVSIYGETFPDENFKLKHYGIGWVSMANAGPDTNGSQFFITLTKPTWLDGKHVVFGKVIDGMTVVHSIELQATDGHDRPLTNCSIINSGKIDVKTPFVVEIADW

As for `C[N+]1=C(C=CC=CC=C2N(CCCCCC(=O)NCCNC(=O)C3CCNC(=O)C=CC(=O)N4CCCC(Cc5ccccc5)(C4)C(=O)NC(Cc4ccc(-c5ccc(CC(C(=O)O)C(=O)O)cc5)cc4)C(=O)NCc4ccccc4CC(=O)N3)c3ccccc3C2(C)C)C(C)(C)c2ccccc21` (stereo not shown) [*B52-Cy5], the IC50 on Cyp40, on NKTR (setting [1]), at CypG, on CypH (setting [2]), on CypC (setting [3]) and at CypE (setting [4]) was above 10 µM each time. Also, the IC50 at CypA (setting [5]) and on PPIL1 (setting [6]) was above 10 µM in each case.
In the case of `C[N+]1=C(C=CC=CC=C2N(CCCCCC(=O)NCCNC(=O)C3CCNC(=O)C=CC(=O)N4CCCC(Cc5ccccc5)(C4)C(=O)NC(Cc4ccc(-c5ccc(C(CC(=O)O)CC(=O)O)cc5)cc4)C(=O)NCc4ccccc4CC(=O)N3)c3ccccc3C2(C)C)C(C)(C)c2ccccc21` (stereo not shown) [*B53-Cy5], the IC50 on Cyp40, at NKTR (setting [1]), on CypG, on CypH (setting [2]), at CypC (setting [3]) and at CypE (setting [4]) was above 10 µM in each case. Also, the IC50 at CypA (setting [5]) and on PPIL1 (setting [6]) was above 10 µM throughout.
For `NC(=O)[C@@H]1CCNC(=O)/C=C/C(=O)N2CCC[C@](Cc3ccccc3)(C2)C(=O)N[C@@H](Cc2ccc(-c3cccc(B(O)O)c3)cc2)C(=O)NCc2ccccc2CC(=O)N1` [Compound C6A], the IC50 at NKTR (prolyl-isomerase inhibition, 5 nM cyclophilin, read-out: IC50 NKTR) is above 10 µM; at NKTR (setting [1]) it was 5 µM; at CypG, 1.3 µM; on CypH (prolyl-isomerase inhibition, 5 nM cyclophilin, read-out: IC50 CypH) it was around 4 µM; on CypH (setting [2]), 4 µM; at CypC (prolyl-isomerase inhibition, 5 nM cyclophilin, read-out: IC50 CypC), around 5 µM. The IC50 on CypC (setting [3]) was 5 µM; at CypE (prolyl-isomerase inhibition, 5 nM cyclophilin, read-out: IC50 CypE) it was ~4 µM and 4 µM; on CypA (prolyl-isomerase inhibition, 5 nM cyclophilin, read-out: IC50 CypA) it was around 6 µM; on CypA (setting [5]), 6 µM; on PPIL1 (prolyl-isomerase inhibition, 5 nM cyclophilin, read-out: IC50 PPIL1), around 5 µM; at PPIL1 (setting [6]), above 10 µM.
